Columns and labels:
Cytochrome P450 3A4 [1] = target: T1, Cytochrome P450 3A4 (Homo sapiens, UniProt P08684); experiment: Time-dependent inhibition of CYP3A4 in human liver microsomes using midazolam as substrate and in presence of co-factor by LC-MS/MS analysis
Cytochrome P450 3A4 [2] = target: T1, Cytochrome P450 3A4; experiment: Inhibition of CYP3A4 in human liver microsomes using midazolam as substrate and in presence of co-factor preincubated for 20 mins followed by substrate addition by LC-MS/MS analysis
[3] = Inhibition of embelin-induced migration of human neutrophils preincubated for 30 mins followed by embelin addition and measured after 1 hr by ATPlite luminescence assay; conditions: Neutrophil
[4] = Plasma protein binding in mouse at 5 uM measured after 4 hrs by LC-MS/MS analysis
[5] = Plasma protein binding in rat at 5 uM measured after 4 hrs by LC-MS/MS analysis
[6] = Inhibition of embelin-induced migration of rat neutrophils preincubated for 30 mins followed by embelin addition and measured after 1 hr by celltiter-glo assay; conditions: Neutrophil
[7] = Half-life in male Sprague-Dawley rat at 0.5 mg/kg, iv administered as single bolus dose using PEG-200/NaCl formulation measured after 24 hrs by LC-MS/MS analysis; conditions: in vivo
[8] = Volume of distribution at steady state in male Sprague-Dawley rat at 0.5 mg/kg, iv administered as single bolus dose using PEG-200/NaCl formulation measured after 24 hrs by LC-MS/MS analysis; conditions: in vivo
[9] = Initial plasma concentration in male Sprague-Dawley rat at 0.5 mg/kg, iv administered as single bolus dose using PEG-200/NaCl formulation measured after 24 hrs by LC-MS/MS analysis
[10] = Clearance in Beagle dog at 0.5 mg/kg, iv administered as 10 mins infusion via catheter by LC-MS/MS analysis; conditions: in vivo
[11] = Half-life in plasma of Balb/c mouse model of DSS-induced colitis at 3 mg/kg, po administered using PEG-200/water formulation starting from day 1 to 11 measured by LC-MS analysis
[12] = target: Cytochrome P450 2D6 (Homo sapiens) (UniProt P10635)
Cytochrome P450 2D6 (Homo sapiens), sequence (P10635 whole entry, looked up): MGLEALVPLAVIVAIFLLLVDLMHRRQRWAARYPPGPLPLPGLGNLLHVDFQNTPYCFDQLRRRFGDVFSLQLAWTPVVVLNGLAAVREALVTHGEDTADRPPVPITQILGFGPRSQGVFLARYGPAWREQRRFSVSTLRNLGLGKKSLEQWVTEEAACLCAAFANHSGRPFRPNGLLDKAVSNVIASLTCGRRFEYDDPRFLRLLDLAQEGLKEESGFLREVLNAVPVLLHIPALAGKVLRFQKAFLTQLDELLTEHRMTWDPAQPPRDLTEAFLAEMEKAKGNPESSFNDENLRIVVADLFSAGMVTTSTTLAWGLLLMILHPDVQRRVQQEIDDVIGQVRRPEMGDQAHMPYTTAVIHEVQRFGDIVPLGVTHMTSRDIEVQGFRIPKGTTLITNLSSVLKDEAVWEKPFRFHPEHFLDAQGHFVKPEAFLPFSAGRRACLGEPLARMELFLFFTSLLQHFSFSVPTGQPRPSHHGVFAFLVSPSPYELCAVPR

in vivo [13] = conditions: CD1, mouse, po, 5 mg/kg
in vivo [14] = conditions: CD1, mouse, po, 5 mg/kg; remark: listed apart in the source
in vivo [15] = conditions: CD1, mouse, po, 5 mg/kg; remark: listed apart in the source
in vivo [16] = conditions: male, Sprague-Dawley, rat, iv, 0.5 mg/kg
in vivo [17] = conditions: male, Sprague-Dawley, rat, po
in vivo [18] = conditions: Beagle, dog, po
in vivo [19] = conditions: Beagle, dog, po; remark: listed apart in the source
in vivo [20] = conditions: Beagle, dog, po; remark: listed apart in the source
in vivo [21] = conditions: Balb/c, mouse, plasma, po, 3 mg/kg
in vivo [22] = conditions: Balb/c, mouse, plasma, po, 3 mg/kg; remark: listed apart in the source
in vivo [23] = conditions: Balb/cj, mouse, plasma, po, 10 mg/kg
in vivo [24] = conditions: Balb/c, mouse, plasma, po, 10 mg/kg
in vitro [25] = conditions: mouse, liver microsomes
in vitro [26] = conditions: rat, cryopreserved hepatocytes
in vitro [27] = conditions: rat, cryopreserved hepatocytes; remark: listed apart in the source

T1 sequence (P08684 whole entry): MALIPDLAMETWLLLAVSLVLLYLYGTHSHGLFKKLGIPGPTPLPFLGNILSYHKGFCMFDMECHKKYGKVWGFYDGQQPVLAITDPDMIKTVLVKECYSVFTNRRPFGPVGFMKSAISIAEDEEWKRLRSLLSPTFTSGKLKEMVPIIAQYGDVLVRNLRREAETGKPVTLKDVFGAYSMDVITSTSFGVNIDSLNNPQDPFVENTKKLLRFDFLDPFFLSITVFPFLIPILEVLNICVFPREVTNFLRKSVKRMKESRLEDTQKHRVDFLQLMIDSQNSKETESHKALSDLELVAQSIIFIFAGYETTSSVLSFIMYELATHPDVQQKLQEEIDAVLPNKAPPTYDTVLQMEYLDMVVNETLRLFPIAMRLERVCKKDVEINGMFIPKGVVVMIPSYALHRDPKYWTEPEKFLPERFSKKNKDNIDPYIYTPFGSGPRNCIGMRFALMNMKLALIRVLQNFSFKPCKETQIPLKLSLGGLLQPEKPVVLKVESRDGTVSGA

IC50 (Cytochrome P450 3A4 [1]): > 50000 nM
IC50 (Cytochrome P450 3A4 [2]): > 50000 nM
IC50 [3]: 11 nM
fraction unbound at 4 h, 5 µM [4]: 0.022
fraction unbound at 4 h, 5 µM [5]: 0.023
half-life at 24 h [7]: 1 h
Vd at 24 h [8]: 1.2 L/kg
C0 at 24 h [9]: 395 ng/mL
clearance at […] [10]: 20 mL/min/kg
half-life [11]: 2.9 h
IC50 [12]: > 100000 nM
Cmax at 24 h (in vivo [13]): 4590 ng/mL
Tmax at 24 h (in vivo [14]): 0.5 h
AUC(0-t) at 24 h (in vivo [15]): 15300 ng·h/mL
AUC(0-t) at 24 h (in vivo [16]): 710 ng·h/mL
Tmax at 24 h (in vivo [17]): 1.5 h
Cmax (in vivo [18]): 558 ng/mL
Tmax (in vivo [19]): 0.5 h
AUC(0-t) at 24 h (in vivo [20]): 2230 ng·h/mL
Tmax (in vivo [21]): 1 h
AUC(0-t) at 24 h (in vivo [22]): 5560 ng·h/mL
Cmax (in vivo [23]): 8140 ng/mL
AUC(0-t) at 24 h (in vivo [24]): 50400 ng·h/mL
CLint scaled at 0.5 h, 1 µM (in vitro [25]): 133 mL/min/kg
half-life at 1 µM (in vitro [26]): > 3.33 h
CLint scaled at 1 µM (in vitro [27]): < 33.3 mL/min/kg
SMILES: O=c1nc(OC[C@@H]2COCCO2)cc2n1CCc1cc(C#CC3CC3)ccc1-2 [GLPG-1205]
IC50 [6]: 111 nM

From ChEMBL document CHEMBL4673243, “Discovery of 9-Cyclopropylethynyl-2-((S)-1-[1,4]dioxan-2-ylmethoxy)-6,7-dihydropyrimido[6,1-a]isoquinolin-4-one (GLPG1205), a Unique GPR84 Negative Allosteric Modulator Undergoing Evaluation in a Phase II Clinical Trial” (J Med Chem, 2020)
